Data as given in article PMC8691714 (Cancer Research Communications, 2021).

Tests used:
TMD8 cells = assay: MTT viability assay, TMD8 cells, 72 hours; type: cell-based, human
Description: Cell viability was assessed after 72 hours of incubation.

[1] = design: method as in earlier work; settings: PBPK model parameter, ref [17, 18] and Drugbank, cited from earlier work
[2] = design: method as in earlier work; settings: PBPK model parameter, ref [17, 18] and Drugbank, cited from earlier work; remark: listed apart in the source
[3] = design: method as in earlier work; settings: PBPK model parameter, ref [17, 18] and Drugbank, cited from earlier work; remark: listed apart in the source
BTK = assay: Immunoblotting of BTK signaling in primary CLL cells; type: cell-based, human; settings: ibrutinib 1 μmol/L with cobicistat 1, 10 μmol/L
Description: Blood was drawn from patients with newly diagnosed, untreated CLL after receipt of written informed consent under a protocol approved by the Institutional Review Board of The Ohio State University (Columbus, OH) in accordance with the Declaration of Helsinki. B cells were isolated from whole blood using Rosette-Sep B (StemCell Technologies). Primary CLL cells were cultured in RPMI1640 medium supplemented with 10% FBS, 100 U/mL penicillin, 100 μg/mL streptomycin, and 2 mmol/L […]. […] After 1 hour, the cells were pelleted and resuspended in fresh media. For experiments with extended drug exposure, DMSO and cobicistat were added again after washout.
After 15 minutes of stimulation, cell lysates were collected and analyzed by SDS-PAGE. Protein was transferred to nitrocellulose and blots were probed with primary antibodies and horseradish peroxidase (HRP)-conjugated secondary antibodies. Blots were imaged using WesternBright chemiluminescent substrate (Advansta) on an X-ray film. Phosphorylated proteins were analyzed first, then antibodies were removed using Western Blot Stripping Buffer (Thermo Fisher Scientific) before analyzing total protein. Membranes were stripped after imaging total proteins before analyzing loading control. […] Loading controls were assessed for each membrane and are presented with corresponding proteins analyzed on the same membrane.

CC(C)c1nc(CN(C)C(=O)N[C@@H](CCN2CCOCC2)C(=O)N[C@H](CC[C@H](Cc2ccccc2)NC(=O)OCc2cncs2)Cc2ccccc2)cs1 [Cobicistat]
influence on the antileukemic activity of ibrutinib (TMD8 cells; cobicistat 0.1, 1 or 10 μmol/L): neither ketoconazole nor cobicistat negatively influenced | B/P ratio ([1]; blood to plasma ratio): 0.55 | fu, plasma ([1]; unbound drug in the plasma): 0.020 | Ka [2]: Ka (1/h)= 0.29 | Clpo ([2]; oral clearance): Clpo (L/h) : 14 | Vss ([2]; steady-state volume of distribution): 0.46 L/kg | pKa ([3]; acid dissociation constant): 6.69 | Log Po:w ([3]; octanol/water partition coefficient): 4.36 | impact on ibrutinib's ability to suppress BTK signaling (BTK): did not impact

CC(=O)N1CCN(c2ccc(OCC3COC(Cn4ccnc4)(c4ccc(Cl)cc4Cl)O3)cc2)CC1 (stereo not shown) [Ketoconazole]
influence on the antileukemic activity of ibrutinib (TMD8 cells; ketoconazole 0.1, 1 or 10 μmol/L): neither ketoconazole nor cobicistat negatively influenced
